Experimental findings from ChEMBL document CHEMBL1201862, “PubChem BioAssay data set” (2004) are described below.

SMILES strings stand for the structures. Activity calls are given as the source filed them.

Test [1] has as its target T1, Ubiquitin-conjugating enzyme E2 N (Homo sapiens, UniProt P61088).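 Note: Dose-response confirmation in a TR-FRET assay detecting UBC13-driven polyubiquitin chain formation, inhibition measured.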
T1 sequence (P61088 whole entry): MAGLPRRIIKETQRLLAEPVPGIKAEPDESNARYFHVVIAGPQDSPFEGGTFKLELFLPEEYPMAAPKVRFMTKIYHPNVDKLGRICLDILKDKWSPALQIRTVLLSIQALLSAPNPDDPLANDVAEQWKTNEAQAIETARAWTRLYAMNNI
The test is classed as functional.

A short description of test [2]: viability of uninfected HEp-2 cells – cell-based, HTS, cytotoxicity control for RSV inhibitor project, dose response (AID 2410). The format is functional. To be noted: human respiratory syncytial virus.
Test [3] deals with Glyceraldehyde-3-phosphate dehydrogenase (Homo sapiens, UniProt P04406).
Test [4] has as its target Peroxisome proliferator-activated receptor gamma/Nuclear receptor coactivator 3 (Homo sapiens, UniProt P37231). The format is functional.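 Note: agonist potency for raising coactivator recruitment to the receptor.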
The target of test [5] is Peroxisome proliferator-activated receptor gamma/Nuclear receptor coactivator 2 (Homo sapiens, UniProt P37231). The format is functional.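 Note: agonist potency for raising coactivator recruitment to the receptor.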
The target in test [6] is Peroxisome proliferator-activated receptor gamma/Nuclear receptor coactivator 1 (Homo sapiens, UniProt P37231). The test is classed as functional.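 Note: agonist potency as compounds enhance coactivator SRC-1 recruitment to PPARgamma.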
The next test concerns HEK293. Description: cells. To be noted: Homo sapiens.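 Note: cells exposed to compound for 14 hours overnight before viability readout.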
A further test concerns the target Tumor necrosis factor (Homo sapiens, UniProt P01375). As to the kind of experiment: analog potency on TNFa NF-kB signaling – cell-based, revised, SAR follow-up (AID 2337). The format is functional.
For test [7], the target named is T2, Nucleotide-binding oligomerization domain-containing protein 1 (Homo sapiens, UniProt Q9Y239).
T2 sequence (Q9Y239 whole entry): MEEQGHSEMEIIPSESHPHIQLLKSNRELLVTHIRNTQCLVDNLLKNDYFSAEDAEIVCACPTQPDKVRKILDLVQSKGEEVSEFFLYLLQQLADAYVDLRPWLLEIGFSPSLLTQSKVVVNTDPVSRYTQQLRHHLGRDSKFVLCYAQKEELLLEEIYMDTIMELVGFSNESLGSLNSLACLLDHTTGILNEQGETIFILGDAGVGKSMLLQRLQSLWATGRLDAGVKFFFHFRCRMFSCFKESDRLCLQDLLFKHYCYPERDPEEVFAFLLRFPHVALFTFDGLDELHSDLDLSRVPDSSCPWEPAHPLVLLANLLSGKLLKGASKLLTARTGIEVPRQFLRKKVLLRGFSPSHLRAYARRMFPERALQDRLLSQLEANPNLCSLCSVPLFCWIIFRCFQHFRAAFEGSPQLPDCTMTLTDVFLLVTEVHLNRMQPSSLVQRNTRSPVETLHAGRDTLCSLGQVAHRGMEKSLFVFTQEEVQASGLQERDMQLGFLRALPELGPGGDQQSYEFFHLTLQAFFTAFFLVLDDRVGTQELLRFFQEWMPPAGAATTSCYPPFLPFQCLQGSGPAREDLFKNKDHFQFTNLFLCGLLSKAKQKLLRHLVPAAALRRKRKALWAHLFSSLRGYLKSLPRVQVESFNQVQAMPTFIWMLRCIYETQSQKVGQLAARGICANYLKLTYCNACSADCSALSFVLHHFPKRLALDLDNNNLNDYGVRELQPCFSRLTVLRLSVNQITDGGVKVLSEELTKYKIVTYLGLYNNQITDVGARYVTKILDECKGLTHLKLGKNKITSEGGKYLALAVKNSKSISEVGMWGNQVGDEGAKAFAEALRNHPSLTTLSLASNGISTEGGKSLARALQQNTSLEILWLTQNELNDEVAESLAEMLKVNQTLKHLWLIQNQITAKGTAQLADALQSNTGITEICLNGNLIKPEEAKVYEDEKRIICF
As to the kind of experiment: blockers of NOD1 pathway activity – revised, SAR follow-up (AID 2333). The format is functional.

Test [8] deals with T3, Heat shock factor protein 1 (Mus musculus, UniProt P38532).
T3 sequence (P38532 whole entry): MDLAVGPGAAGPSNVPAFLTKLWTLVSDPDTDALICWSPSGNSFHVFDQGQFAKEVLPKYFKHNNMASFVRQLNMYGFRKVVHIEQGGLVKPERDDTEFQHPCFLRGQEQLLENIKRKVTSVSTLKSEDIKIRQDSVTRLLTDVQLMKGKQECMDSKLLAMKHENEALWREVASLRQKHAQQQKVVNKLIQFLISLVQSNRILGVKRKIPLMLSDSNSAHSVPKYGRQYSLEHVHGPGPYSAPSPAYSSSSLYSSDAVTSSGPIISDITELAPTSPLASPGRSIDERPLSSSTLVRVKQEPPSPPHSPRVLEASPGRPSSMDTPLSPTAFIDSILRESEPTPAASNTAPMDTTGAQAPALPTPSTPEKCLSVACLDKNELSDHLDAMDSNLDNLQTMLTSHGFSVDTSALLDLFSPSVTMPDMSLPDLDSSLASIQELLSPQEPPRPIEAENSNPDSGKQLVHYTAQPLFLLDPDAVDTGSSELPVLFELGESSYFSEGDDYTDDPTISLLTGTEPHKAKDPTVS
As to the kind of experiment: enhancement of HSF1-driven luciferase signal – cell-based, NIH3T3, luminescence, dose retest, confirmation (AID 435004).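 Note: stress induced by proteasome inhibitor MG132 added 30 min after compound; luciferase reporter driven by HSF1 response element in NIH3T3 cells; actives raise luminescence as potentiators of the MG132 stress response.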 The format is functional.

Test [9] concerns the target T4, Histone-lysine N-methyltransferase NSD2 (Homo sapiens, UniProt O96028).
T4 sequence (O96028 whole entry): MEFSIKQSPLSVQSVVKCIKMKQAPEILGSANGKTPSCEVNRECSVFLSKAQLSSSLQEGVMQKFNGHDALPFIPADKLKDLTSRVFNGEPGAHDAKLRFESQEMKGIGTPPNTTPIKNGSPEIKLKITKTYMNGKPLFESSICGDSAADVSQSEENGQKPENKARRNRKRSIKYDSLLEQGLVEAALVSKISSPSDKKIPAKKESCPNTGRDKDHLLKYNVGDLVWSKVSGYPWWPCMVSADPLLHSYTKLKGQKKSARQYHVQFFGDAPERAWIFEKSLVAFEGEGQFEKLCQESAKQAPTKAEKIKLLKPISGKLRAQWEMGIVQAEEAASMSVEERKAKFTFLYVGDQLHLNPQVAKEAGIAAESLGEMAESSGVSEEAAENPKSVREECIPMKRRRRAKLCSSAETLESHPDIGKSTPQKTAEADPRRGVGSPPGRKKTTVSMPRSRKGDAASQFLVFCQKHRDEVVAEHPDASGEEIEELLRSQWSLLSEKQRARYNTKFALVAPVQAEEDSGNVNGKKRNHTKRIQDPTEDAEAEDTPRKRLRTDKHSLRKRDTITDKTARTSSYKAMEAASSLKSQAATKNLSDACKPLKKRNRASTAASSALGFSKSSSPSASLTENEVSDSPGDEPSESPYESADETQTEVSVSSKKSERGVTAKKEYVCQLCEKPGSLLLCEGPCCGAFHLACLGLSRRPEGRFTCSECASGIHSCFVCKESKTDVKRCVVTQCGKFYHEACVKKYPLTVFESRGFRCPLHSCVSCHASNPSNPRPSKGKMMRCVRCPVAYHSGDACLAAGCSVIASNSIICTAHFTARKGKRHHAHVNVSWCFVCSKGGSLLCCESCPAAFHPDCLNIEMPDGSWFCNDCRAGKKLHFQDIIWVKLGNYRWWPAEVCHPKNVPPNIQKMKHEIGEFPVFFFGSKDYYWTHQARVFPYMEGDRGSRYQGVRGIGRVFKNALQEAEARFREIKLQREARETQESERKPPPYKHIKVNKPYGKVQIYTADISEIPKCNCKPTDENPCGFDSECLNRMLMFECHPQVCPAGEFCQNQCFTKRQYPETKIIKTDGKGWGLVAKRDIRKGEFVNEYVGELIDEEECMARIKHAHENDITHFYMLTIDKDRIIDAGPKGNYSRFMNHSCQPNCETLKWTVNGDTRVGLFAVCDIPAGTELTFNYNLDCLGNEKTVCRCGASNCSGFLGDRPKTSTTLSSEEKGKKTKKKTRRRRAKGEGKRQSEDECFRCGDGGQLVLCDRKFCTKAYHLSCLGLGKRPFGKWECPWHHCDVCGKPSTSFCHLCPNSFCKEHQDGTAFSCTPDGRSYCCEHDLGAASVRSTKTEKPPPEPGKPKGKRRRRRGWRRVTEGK
The test is classed as biochemical.

Test [10] is described as follows: NIH3T3 cell viability loss – ATP luminescence, mouse fibroblasts, counter-screen, dose response (AID 2010).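 Note: cells exposed to compound for about 90 hours before reading.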 The format is functional, cell-based.
Test [11] can be described thus: Trypanosoma cruzi growth suppression in host cells – NIH3T3 host cells, beta-gal luminescence, confirmation (AID 2044).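 Note: intracellular parasites grown in NIH/3T3 mouse fibroblasts as host cells; luminescent beta-galactosidase reporter signal from transgenic T. cruzi replicating inside host cells; inhibitors lower the luminescence signal.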 The test is classed as functional, cell-based.
For test [12], the target named is T5, Corticotropin-releasing factor receptor 2/Corticotropin-releasing factor-binding protein (Homo sapiens, UniProt P24387+Q13324).
T5 sequence (Q13324 whole entry): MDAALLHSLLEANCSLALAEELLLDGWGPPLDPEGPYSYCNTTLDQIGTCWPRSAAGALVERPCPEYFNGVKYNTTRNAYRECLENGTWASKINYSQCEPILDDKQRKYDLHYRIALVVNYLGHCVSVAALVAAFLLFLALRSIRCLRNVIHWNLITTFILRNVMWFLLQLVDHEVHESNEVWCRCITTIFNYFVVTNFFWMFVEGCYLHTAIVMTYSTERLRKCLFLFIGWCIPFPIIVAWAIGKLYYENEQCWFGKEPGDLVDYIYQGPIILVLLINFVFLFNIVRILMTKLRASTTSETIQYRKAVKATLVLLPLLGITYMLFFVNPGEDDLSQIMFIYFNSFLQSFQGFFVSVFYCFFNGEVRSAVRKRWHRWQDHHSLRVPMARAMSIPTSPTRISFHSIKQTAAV
T5 sequence (P24387 whole entry): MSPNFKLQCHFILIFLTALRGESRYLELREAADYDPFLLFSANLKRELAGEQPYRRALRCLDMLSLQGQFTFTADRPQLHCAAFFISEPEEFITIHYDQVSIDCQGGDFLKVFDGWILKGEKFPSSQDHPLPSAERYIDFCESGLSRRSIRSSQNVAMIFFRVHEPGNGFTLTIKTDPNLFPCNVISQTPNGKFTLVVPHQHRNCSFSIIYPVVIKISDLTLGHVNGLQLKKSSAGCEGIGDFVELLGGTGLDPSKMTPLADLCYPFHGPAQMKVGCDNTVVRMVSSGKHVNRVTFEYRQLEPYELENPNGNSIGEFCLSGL
Description: activators of CRF receptor 2 with binding protein – uHTS hits, confirmation (AID 602473). The format is functional. To be noted: read-out: EC50_Mean.

The target of test [13] is T5, Corticotropin-releasing factor receptor 2/Corticotropin-releasing factor-binding protein. Description: Dose Response confirmation of uHTS hits for small molecule antagonists of the CRF-binding protein and CRF-R2 receptor complex. The test is classed as functional. To be noted: read-out: IC50_Mean.
Test [14] is described as follows: reduction of Shn3 3'UTR-driven luciferase in osteoblasts – cell-based, Clone20 osteoblasts, firefly luciferase, cherry-picked, dose response (AID 624132).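 Note: firefly luciferase luminescence from reporter carrying the Shn3 3'UTR in osteoblasts.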 The test is classed as functional.
Test [15] is described as follows: microbe, parasite or virus in culture. The format is functional. To be noted: Mycobacterium tuberculosis.
A short description of test [16]: non-specific 3'UTR reporter inhibition in Clone20-Shn3RL – cell-based, Renilla luciferase, cherry-picked, counter-screen for Shn3 inhibitor project, dose response (AID 624133). The test is classed as functional.
The nature of test [17]: loss of viability in HepG2 cells – cell-based, CellTiter-Glo, cherry-picked, cytotoxicity control for Shn3 inhibitor project, dose response (AID 624134). The test is classed as functional.

Sequence of Peroxisome proliferator-activated receptor gamma/Nuclear receptor coactivator 1 (P37231 whole entry): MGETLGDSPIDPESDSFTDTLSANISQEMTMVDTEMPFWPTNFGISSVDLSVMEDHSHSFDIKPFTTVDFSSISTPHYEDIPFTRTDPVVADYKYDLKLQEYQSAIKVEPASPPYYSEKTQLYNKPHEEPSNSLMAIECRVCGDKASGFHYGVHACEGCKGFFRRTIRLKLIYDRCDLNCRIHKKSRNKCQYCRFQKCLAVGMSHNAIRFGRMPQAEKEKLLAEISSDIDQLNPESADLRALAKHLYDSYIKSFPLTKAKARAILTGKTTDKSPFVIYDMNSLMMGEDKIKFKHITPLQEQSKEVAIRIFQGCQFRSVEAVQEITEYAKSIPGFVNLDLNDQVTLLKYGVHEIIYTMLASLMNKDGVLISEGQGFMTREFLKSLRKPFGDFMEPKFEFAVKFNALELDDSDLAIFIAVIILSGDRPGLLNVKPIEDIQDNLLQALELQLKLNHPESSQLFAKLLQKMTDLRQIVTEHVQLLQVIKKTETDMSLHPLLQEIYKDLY
Sequence of Peroxisome proliferator-activated receptor gamma/Nuclear receptor coactivator 1 (Q15788 whole entry, further chain): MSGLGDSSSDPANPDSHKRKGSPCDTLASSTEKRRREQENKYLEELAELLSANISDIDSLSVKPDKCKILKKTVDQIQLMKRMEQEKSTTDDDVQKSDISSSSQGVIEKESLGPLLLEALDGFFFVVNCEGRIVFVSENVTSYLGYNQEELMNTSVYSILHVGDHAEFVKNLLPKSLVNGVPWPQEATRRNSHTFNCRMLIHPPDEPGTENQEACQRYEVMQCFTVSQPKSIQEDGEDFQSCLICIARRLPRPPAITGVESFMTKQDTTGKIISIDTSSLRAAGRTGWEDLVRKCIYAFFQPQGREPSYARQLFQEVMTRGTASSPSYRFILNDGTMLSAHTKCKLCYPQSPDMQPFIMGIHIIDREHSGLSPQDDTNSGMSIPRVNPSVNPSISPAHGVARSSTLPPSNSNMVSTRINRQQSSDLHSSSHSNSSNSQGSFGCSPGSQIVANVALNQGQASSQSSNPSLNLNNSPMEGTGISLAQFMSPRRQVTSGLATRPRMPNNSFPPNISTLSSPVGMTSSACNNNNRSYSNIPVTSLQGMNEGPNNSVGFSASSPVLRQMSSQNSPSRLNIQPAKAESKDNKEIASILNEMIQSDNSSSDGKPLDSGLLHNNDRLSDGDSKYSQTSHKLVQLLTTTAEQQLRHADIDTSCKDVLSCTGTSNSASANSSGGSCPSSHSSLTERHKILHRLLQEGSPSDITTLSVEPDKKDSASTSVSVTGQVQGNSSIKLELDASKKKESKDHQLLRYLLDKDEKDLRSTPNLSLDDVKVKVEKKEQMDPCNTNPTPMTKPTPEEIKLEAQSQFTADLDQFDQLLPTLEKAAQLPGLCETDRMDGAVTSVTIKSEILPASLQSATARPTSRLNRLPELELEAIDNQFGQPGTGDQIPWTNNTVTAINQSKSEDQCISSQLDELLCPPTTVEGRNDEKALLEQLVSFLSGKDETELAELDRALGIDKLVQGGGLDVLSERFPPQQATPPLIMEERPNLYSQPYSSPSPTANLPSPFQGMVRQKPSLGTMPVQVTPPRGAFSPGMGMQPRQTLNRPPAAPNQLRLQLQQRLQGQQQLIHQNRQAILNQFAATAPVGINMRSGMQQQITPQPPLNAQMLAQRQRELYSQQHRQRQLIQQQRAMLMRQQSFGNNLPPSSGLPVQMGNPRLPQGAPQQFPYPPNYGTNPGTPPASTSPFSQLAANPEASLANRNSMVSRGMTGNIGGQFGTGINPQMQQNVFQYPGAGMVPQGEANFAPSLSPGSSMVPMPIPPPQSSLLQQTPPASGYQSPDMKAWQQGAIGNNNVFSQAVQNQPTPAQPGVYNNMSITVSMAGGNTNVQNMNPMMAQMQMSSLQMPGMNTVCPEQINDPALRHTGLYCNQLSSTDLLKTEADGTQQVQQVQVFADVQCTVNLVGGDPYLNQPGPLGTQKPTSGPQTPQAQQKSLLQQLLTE
Sequence of Peroxisome proliferator-activated receptor gamma/Nuclear receptor coactivator 2 (P37231 whole entry): as the sequence (P37231 whole entry) above
Sequence of Peroxisome proliferator-activated receptor gamma/Nuclear receptor coactivator 2 (Q15596 whole entry, further chain): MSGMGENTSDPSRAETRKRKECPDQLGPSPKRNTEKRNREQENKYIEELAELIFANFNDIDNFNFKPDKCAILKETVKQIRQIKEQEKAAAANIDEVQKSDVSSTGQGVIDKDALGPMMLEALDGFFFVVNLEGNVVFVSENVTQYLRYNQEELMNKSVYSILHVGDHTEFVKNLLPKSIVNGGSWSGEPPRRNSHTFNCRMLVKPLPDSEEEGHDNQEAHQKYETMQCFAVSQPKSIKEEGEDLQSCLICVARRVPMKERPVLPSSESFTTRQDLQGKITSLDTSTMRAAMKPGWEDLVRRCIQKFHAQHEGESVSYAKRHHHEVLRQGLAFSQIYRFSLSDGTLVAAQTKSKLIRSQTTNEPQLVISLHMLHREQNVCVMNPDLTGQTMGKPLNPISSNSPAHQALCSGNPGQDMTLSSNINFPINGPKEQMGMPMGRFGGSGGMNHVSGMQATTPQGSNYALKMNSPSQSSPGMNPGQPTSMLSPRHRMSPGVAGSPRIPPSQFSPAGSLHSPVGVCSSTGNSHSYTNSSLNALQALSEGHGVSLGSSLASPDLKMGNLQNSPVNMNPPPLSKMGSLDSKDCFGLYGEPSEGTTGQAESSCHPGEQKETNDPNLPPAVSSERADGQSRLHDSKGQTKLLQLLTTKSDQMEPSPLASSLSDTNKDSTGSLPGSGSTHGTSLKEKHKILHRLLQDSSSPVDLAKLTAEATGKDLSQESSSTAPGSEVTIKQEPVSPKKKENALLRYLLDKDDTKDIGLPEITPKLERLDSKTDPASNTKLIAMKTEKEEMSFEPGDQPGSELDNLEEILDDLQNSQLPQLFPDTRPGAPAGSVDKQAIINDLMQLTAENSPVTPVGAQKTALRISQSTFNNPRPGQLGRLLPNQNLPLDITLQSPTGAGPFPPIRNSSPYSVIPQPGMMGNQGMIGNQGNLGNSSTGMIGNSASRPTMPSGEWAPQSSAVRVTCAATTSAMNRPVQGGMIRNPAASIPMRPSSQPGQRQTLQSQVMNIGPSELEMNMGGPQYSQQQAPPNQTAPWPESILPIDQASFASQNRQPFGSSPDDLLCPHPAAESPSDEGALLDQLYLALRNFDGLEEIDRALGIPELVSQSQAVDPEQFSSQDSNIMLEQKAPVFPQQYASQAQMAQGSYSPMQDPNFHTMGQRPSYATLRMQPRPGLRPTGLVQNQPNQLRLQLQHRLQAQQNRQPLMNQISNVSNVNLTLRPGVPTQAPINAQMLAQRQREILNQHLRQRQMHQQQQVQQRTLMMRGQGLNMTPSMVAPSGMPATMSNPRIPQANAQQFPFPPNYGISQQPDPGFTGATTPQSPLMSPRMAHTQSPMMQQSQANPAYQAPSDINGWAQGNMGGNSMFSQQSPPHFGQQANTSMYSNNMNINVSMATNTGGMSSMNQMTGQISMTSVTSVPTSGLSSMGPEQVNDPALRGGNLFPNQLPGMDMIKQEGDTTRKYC
Sequence of Glyceraldehyde-3-phosphate dehydrogenase (P04406 whole entry): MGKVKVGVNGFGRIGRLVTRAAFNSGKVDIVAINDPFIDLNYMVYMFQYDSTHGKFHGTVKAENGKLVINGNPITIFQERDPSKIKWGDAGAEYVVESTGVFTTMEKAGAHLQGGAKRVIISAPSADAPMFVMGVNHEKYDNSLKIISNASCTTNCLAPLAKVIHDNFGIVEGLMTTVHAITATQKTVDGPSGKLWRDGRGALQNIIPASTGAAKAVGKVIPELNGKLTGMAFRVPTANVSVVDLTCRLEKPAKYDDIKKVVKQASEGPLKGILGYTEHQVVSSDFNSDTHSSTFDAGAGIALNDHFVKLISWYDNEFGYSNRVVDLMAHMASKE
Sequence of Tumor necrosis factor (P01375 whole entry, the tested form may be a part): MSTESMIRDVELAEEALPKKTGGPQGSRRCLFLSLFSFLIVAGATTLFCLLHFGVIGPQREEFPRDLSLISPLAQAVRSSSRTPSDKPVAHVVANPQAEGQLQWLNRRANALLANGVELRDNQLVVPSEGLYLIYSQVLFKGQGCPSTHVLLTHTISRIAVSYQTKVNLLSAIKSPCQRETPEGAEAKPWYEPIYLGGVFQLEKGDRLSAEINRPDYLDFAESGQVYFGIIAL

For the compound `COc1ccc(S(=O)(=O)N2CCN(c3ccc4nnc(-c5ccccc5)n4n3)CC2)cc1`, in test [1], the IC50 is > 20 µM (inactive). In addition, the CC50 in [2] was > 50 µM (active).

Regarding `O=C(O)c1cc(NS(=O)(=O)c2cc([N+](=O)[O-])ccc2Cl)ccc1O`, in [3], the IC50 is listed as > 100 µM (not active).

Take `Cc1n[nH]c(C)c1S(=O)(=O)N(CC(=O)Nc1ccc2c(c1)OCCO2)c1ccc(C(C)C)cc1`: the EC50 in test [4], in [5] and in test [6] was > 79.4 µM (not active) each time.

Take `CCN(CC)S(=O)(=O)c1cccc(NC(=O)COC(=O)c2nnc(O)c3ccccc23)c1`: the EC50 in test [4], in test [5] and in test [6] was > 79.4 µM (not active) throughout.

As to `CCOc1cccc(C=NN=C(S)Nc2ccccc2[N+](=O)[O-])c1O`, the IC50 in the test with HEK293 is > 20 µM (inactive); at Tumor necrosis factor, 0.414 µM (active); in [7], 8.23 µM (active).

Take `O=C(c1cnc(-c2ccc(Cl)cc2)s1)c1ccc(Cl)cc1Cl`: the EC50 in [4] was 38.7 µM (not active); in test [5] it was 18.7 µM (not active); in [6] it was 30.8 µM (not active).

`COC(=O)c1ccc(C(=O)OC)c(NC(=O)C(C)(C)C)c1`: the EC50 is > 260 µM (inactive) in test [8], > 79.4 µM (not active) in test [4], > 79.4 µM (not active) in [5] and > 79.4 µM (not active) in test [6].

On to `CCN1CC2CCCC3(C1)C(=O)NC1(CCCCC1)N=C23` (configuration not stated), for which the AC50 in test [9] is 15 µM (active).

In the case of `COC(=O)c1c(NC(=O)C(=O)N2CCCC2)sc2c1CC(C)(C)OC2`, the IC50 in [1] is > 20 µM (inactive).

With `NCCc1c(-c2ccccc2)n(-c2ccccc2)c2ccccc12`, the figures for the EC50 in [10] and in [11] were > 60 µM (inconclusive) and 2.47 µM (active), respectively. Besides, the AC50 in [9] was > 20 µM (inactive).

Turning to `COc1ccc(Cl)cc1Nc1nc(NCCO)nc(N2CCCCC2)n1`, the EC50 in [12] is > 53 µM (inactive). For the same compound, the figures for the IC50 in test [1] and in test [13] were > 20 µM (inactive) and > 47.1 µM (inactive), respectively.

With `CC(C)(C)OC(=O)[C@H](CCCCN)NC(=O)c1[nH]cnc1C(=O)N[C@@H](Cc1ccccc1)C(=O)OCc1ccccc1`, in test [1], the IC50 is > 20 µM (inactive).

Turning to `COc1cc([N+](=O)[O-])ccc1S(=O)(=O)Nc1cccnc1`, in test [3], the IC50 is given as > 100 µM (not active).

`Oc1ccccc1Nc1nc(NCc2ccccc2)c2ccccc2n1`: the AC50 in test [14] is 10.7 µM (active); in [16] it was 5.63 µM (active); in test [17] it was 52.7 µM (active). Besides, the CC50 in [15] was 23.9 µM (active). Also, the IC50 in [1] was > 20 µM (inactive).

As to `CCCCOc1ccc(NC2=NC3(CCCC3)N=C(N)N2)cc1`, the EC50 in [4], in test [5] and in [6] was > 79.4 µM (not active) throughout.
